Laboratory results published in PubChem BioAssay (NCI).
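Interpolation was linear, between the two tested concentrations surrounding the appropriate level; five concentrations were tested over 48 hours in 96-well plates. Definition used: TGI = concentration required for complete inhibition of growth.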

Experiments:
Assay in all cases: NCI tumour cell line growth inhibition, 48 h
RXF 393 renal = system: RXF 393 renal
TK-10 renal = system: TK-10 renal
OVCAR-4 ovarian = system: OVCAR-4 ovarian
NCI-H226 lung = system: NCI-H226 lung
HCT-15 colon = system: HCT-15 colon
SR leukemia = system: SR leukemia
PC-3 prostate = system: PC-3 prostate
HCC-2998 colon = system: HCC-2998 colon
U251 CNS = system: U251 CNS
SNB-19 CNS = system: SNB-19 CNS
SF-295 CNS = system: SF-295 CNS
NCI-H460 lung = system: NCI-H460 lung
A498 renal = system: A498 renal
HOP-62 NSCLC = system: HOP-62 NSCLC
HCT-116 colon = system: HCT-116 colon
UACC-257 melanoma = system: UACC-257 melanoma
SF-268 CNS = system: SF-268 CNS
OVCAR-5 ovarian = system: OVCAR-5 ovarian
786-0 renal = system: 786-0 renal
COLO 205 colon = system: COLO 205 colon
SK-MEL-5 melanoma = system: SK-MEL-5 melanoma
OVCAR-8 ovarian = system: OVCAR-8 ovarian
UO-31 renal = system: UO-31 renal
EKVX NSCLC = system: EKVX NSCLC
CCRF-CEM leukemia = system: CCRF-CEM leukemia
T-47D breast = system: T-47D breast
BT-549 breast = system: BT-549 breast
SF-539 CNS = system: SF-539 CNS
NCI/ADR-RES ovarian = system: NCI/ADR-RES ovarian
LOX IMVI melanoma = system: LOX IMVI melanoma
MALME-3M melanoma = system: MALME-3M melanoma
MCF7 breast = system: MCF7 breast
HL-60(TB) leukemia = system: HL-60(TB) leukemia
OVCAR-3 ovarian = system: OVCAR-3 ovarian
MDA-N = system: MDA-N
MDA-MB-231 breast = system: MDA-MB-231 breast
CAKI-1 renal = system: CAKI-1 renal
NCI-H522 lung = system: NCI-H522 lung
SW-620 colon = system: SW-620 colon
NCI-H23 lung = system: NCI-H23 lung
IGROV1 ovarian = system: IGROV1 ovarian
HT29 colon = system: HT29 colon
A549 NSCLC = system: A549 NSCLC
DU-145 prostate = system: DU-145 prostate
SK-MEL-2 melanoma = system: SK-MEL-2 melanoma
K-562 leukemia = system: K-562 leukemia
SK-MEL-28 melanoma = system: SK-MEL-28 melanoma
HS 578T breast = system: HS 578T breast
M14 melanoma = system: M14 melanoma
KM12 colon = system: KM12 colon
SN12C renal = system: SN12C renal
SK-OV-3 ovarian = system: SK-OV-3 ovarian
SNB-75 CNS = system: SNB-75 CNS
RPMI-8226 leukemia = system: RPMI-8226 leukemia
MOLT-4 leukemia = system: MOLT-4 leukemia
ACHN renal = system: ACHN renal
MDA-MB-435 = system: MDA-MB-435
HOP-92 NSCLC = system: HOP-92 NSCLC
UACC-62 melanoma = system: UACC-62 melanoma

Question: Cc1cc2nc(-c3c(F)cccc3F)n(Cc3c(F)cccc3F)c2cc1C was tested. Which TGI (RXF 393 renal) did it give?
Answer: 61 µM

Question: What about the TGI (TK-10 renal) of the same compound?
Answer: 56.6 µM

Question: And the TGI (OVCAR-4 ovarian)?
Answer: 40.1 µM

Question: And the TGI (NCI-H226 lung)?
Answer: 35.1 µM

Question: What about the TGI (HCT-15 colon) of the same compound?
Answer: 27.6 µM

Question: What about the TGI (SR leukemia) of the same compound?
Answer: 30.4 µM

Question: What about the TGI (PC-3 prostate) of the same compound?
Answer: 40.6 µM

Question: And the TGI (HCC-2998 colon)?
Answer: 21.4 µM

Question: And the TGI (U251 CNS)?
Answer: 24.1 µM

Question: What about the TGI (SNB-19 CNS) of the same compound?
Answer: 42.7 µM

Question: And the TGI (SF-295 CNS)?
Answer: 27.9 µM

Question: And the TGI (NCI-H460 lung)?
Answer: 49.7 µM

Question: What about the TGI (A498 renal) of the same compound?
Answer: 39.9 µM

Question: And the TGI (HOP-62 NSCLC)?
Answer: 28.7 µM

Question: What about the TGI (HCT-116 colon) of the same compound?
Answer: 24.4 µM

Question: What about the TGI (UACC-257 melanoma) of the same compound?
Answer: 30 µM

Question: What about the TGI (SF-268 CNS) of the same compound?
Answer: 42.7 µM

Question: What about the TGI (OVCAR-5 ovarian) of the same compound?
Answer: 31.7 µM

Question: And the TGI (786-0 renal)?
Answer: 31.8 µM

Question: And the TGI (COLO 205 colon)?
Answer: 30.7 µM

Question: What about the TGI (SK-MEL-5 melanoma) of the same compound?
Answer: 26.5 µM

Question: What about the TGI (OVCAR-8 ovarian) of the same compound?
Answer: 29.5 µM

Question: What about the TGI (UO-31 renal) of the same compound?
Answer: 23.3 µM

Question: And the TGI (EKVX NSCLC)?
Answer: 22.7 µM

Question: And the TGI (CCRF-CEM leukemia)?
Answer: 60.9 µM

Question: What about the TGI (T-47D breast) of the same compound?
Answer: 47.2 µM

Question: What about the TGI (BT-549 breast) of the same compound?
Answer: 27.9 µM

Question: What about the TGI (SF-539 CNS) of the same compound?
Answer: 34.3 µM

Question: And the TGI (NCI/ADR-RES ovarian)?
Answer: 44.9 µM

Question: What about the TGI (LOX IMVI melanoma) of the same compound?
Answer: 27.4 µM

Question: And the TGI (MALME-3M melanoma)?
Answer: 44 µM

Question: What about the TGI (MCF7 breast) of the same compound?
Answer: 57.1 µM

Question: What about the TGI (HL-60(TB) leukemia) of the same compound?
Answer: 42.7 µM

Question: What about the TGI (OVCAR-3 ovarian) of the same compound?
Answer: 31.8 µM

Question: And the TGI (MDA-N)?
Answer: 38.4 µM

Question: What about the TGI (MDA-MB-231 breast) of the same compound?
Answer: 31 µM

Question: What about the TGI (CAKI-1 renal) of the same compound?
Answer: 37.7 µM

Question: And the TGI (NCI-H522 lung)?
Answer: 27.1 µM

Question: What about the TGI (SW-620 colon) of the same compound?
Answer: 35 µM

Question: What about the TGI (NCI-H23 lung) of the same compound?
Answer: 39.9 µM

Question: And the TGI (IGROV1 ovarian)?
Answer: 28.4 µM

Question: What about the TGI (HT29 colon) of the same compound?
Answer: 34 µM

Question: And the TGI (A549 NSCLC)?
Answer: 28.1 µM

Question: What about the TGI (DU-145 prostate) of the same compound?
Answer: 50.5 µM

Question: What about the TGI (SK-MEL-2 melanoma) of the same compound?
Answer: 29.6 µM

Question: And the TGI (K-562 leukemia)?
Answer: 42.8 µM

Question: And the TGI (SK-MEL-28 melanoma)?
Answer: 42.2 µM

Question: And the TGI (HS 578T breast)?
Answer: 46.7 µM

Question: And the TGI (M14 melanoma)?
Answer: 25.2 µM

Question: And the TGI (KM12 colon)?
Answer: 28.6 µM

Question: And the TGI (SN12C renal)?
Answer: 33.5 µM

Question: What about the TGI (SK-OV-3 ovarian) of the same compound?
Answer: 42.2 µM

Question: What about the TGI (SNB-75 CNS) of the same compound?
Answer: 26.1 µM

Question: What about the TGI (RPMI-8226 leukemia) of the same compound?
Answer: 24 µM

Question: And the TGI (MOLT-4 leukemia)?
Answer: 33.8 µM

Question: What about the TGI (ACHN renal) of the same compound?
Answer: 35.4 µM

Question: And the TGI (MDA-MB-435)?
Answer: 32.8 µM

Question: And the TGI (HOP-92 NSCLC)?
Answer: 30 µM

Question: Which TGI (RXF 393 renal) does the source give for COC(C)(C)CCc1[nH]c2ccccc2c1CC(=O)NCCc1cncn1C here?
Answer: > 100 µM

Question: And the TGI (TK-10 renal)?
Answer: > 100 µM

Question: And the TGI (OVCAR-4 ovarian)?
Answer: > 100 µM

Question: What about the TGI (NCI-H226 lung) of the same compound?
Answer: > 100 µM

Question: What about the TGI (HCT-15 colon) of the same compound?
Answer: > 100 µM

Question: What about the TGI (SR leukemia) of the same compound?
Answer: > 100 µM

Question: And the TGI (PC-3 prostate)?
Answer: > 100 µM

Question: What about the TGI (HCC-2998 colon) of the same compound?
Answer: > 100 µM

Question: What about the TGI (U251 CNS) of the same compound?
Answer: > 100 µM

Question: What about the TGI (SNB-19 CNS) of the same compound?
Answer: > 100 µM

Question: What about the TGI (NCI-H460 lung) of the same compound?
Answer: > 100 µM

Question: And the TGI (A498 renal)?
Answer: > 100 µM

Question: And the TGI (HCT-116 colon)?
Answer: > 100 µM

Question: What about the TGI (UACC-257 melanoma) of the same compound?
Answer: > 100 µM

Question: What about the TGI (SF-268 CNS) of the same compound?
Answer: > 100 µM

Question: What about the TGI (OVCAR-5 ovarian) of the same compound?
Answer: > 100 µM

Question: And the TGI (UACC-62 melanoma)?
Answer: > 100 µM

Question: And the TGI (786-0 renal)?
Answer: > 100 µM

Question: And the TGI (COLO 205 colon)?
Answer: > 100 µM

Question: What about the TGI (SK-MEL-5 melanoma) of the same compound?
Answer: > 100 µM

Question: What about the TGI (OVCAR-8 ovarian) of the same compound?
Answer: > 100 µM

Question: And the TGI (UO-31 renal)?
Answer: > 100 µM

Question: And the TGI (EKVX NSCLC)?
Answer: > 100 µM

Question: What about the TGI (CCRF-CEM leukemia) of the same compound?
Answer: > 100 µM

Question: And the TGI (T-47D breast)?
Answer: > 100 µM

Question: What about the TGI (BT-549 breast) of the same compound?
Answer: > 100 µM

Question: And the TGI (SF-539 CNS)?
Answer: > 100 µM

Question: And the TGI (NCI/ADR-RES ovarian)?
Answer: > 100 µM

Question: What about the TGI (LOX IMVI melanoma) of the same compound?
Answer: > 100 µM

Question: And the TGI (MALME-3M melanoma)?
Answer: > 100 µM

Question: What about the TGI (MCF7 breast) of the same compound?
Answer: > 100 µM

Question: And the TGI (HL-60(TB) leukemia)?
Answer: > 100 µM

Question: What about the TGI (OVCAR-3 ovarian) of the same compound?
Answer: > 100 µM

Question: What about the TGI (MDA-N) of the same compound?
Answer: > 100 µM

Question: And the TGI (MDA-MB-231 breast)?
Answer: > 100 µM

Question: And the TGI (CAKI-1 renal)?
Answer: > 100 µM

Question: What about the TGI (NCI-H522 lung) of the same compound?
Answer: > 100 µM

Question: What about the TGI (SW-620 colon) of the same compound?
Answer: > 100 µM

Question: What about the TGI (NCI-H23 lung) of the same compound?
Answer: > 100 µM

Question: What about the TGI (IGROV1 ovarian) of the same compound?
Answer: > 100 µM

Question: And the TGI (HT29 colon)?
Answer: > 100 µM

Question: And the TGI (A549 NSCLC)?
Answer: > 100 µM

Question: And the TGI (DU-145 prostate)?
Answer: > 100 µM

Question: And the TGI (SK-MEL-2 melanoma)?
Answer: > 100 µM

Question: And the TGI (K-562 leukemia)?
Answer: > 100 µM

Question: And the TGI (SK-MEL-28 melanoma)?
Answer: > 100 µM

Question: What about the TGI (HS 578T breast) of the same compound?
Answer: > 100 µM

Question: What about the TGI (M14 melanoma) of the same compound?
Answer: > 100 µM

Question: What about the TGI (KM12 colon) of the same compound?
Answer: > 100 µM

Question: What about the TGI (SN12C renal) of the same compound?
Answer: > 100 µM

Question: What about the TGI (SK-OV-3 ovarian) of the same compound?
Answer: > 100 µM

Question: And the TGI (SNB-75 CNS)?
Answer: > 100 µM

Question: What about the TGI (RPMI-8226 leukemia) of the same compound?
Answer: > 100 µM

Question: And the TGI (MOLT-4 leukemia)?
Answer: > 100 µM

Question: What about the TGI (ACHN renal) of the same compound?
Answer: > 100 µM

Question: And the TGI (MDA-MB-435)?
Answer: > 100 µM

Question: What about the TGI (HOP-92 NSCLC) of the same compound?
Answer: > 100 µM
